Assay results from patent US11180494B2, “Substituted amino acids as integrin inhibitors” (Pliant Therapeutics, Inc., priority 2018, dated 2021).

molecular target: human integrin αvβ6 (Homo sapiens (Human), UniProt P06756+P18564); experiment: Proximity-based integrin receptor binding assay (ALPHASCREEN) for inhibitor potency; conditions: inhibition of binding of TGF-b1 LAP to human integrin αvβ6; values given in ranges
Procedure: To gauge the potency of inhibitors of binding to human integrin αvβ6, inhibitor compounds and integrin were incubated together with TGF-b1 LAP and biotinylated anti-LAP antibody plus acceptor and donor beads, following the manufacture's recommendations. The donor beads were coated with streptavidin. […] All incubations occurred at room temperatures in 50 mM Tris-HCl, pH 7.5, 0.1% BSA supplemented with 1 mM each CaCl2 and MgCl2.
The order of reagent addition was as follows:
1. Alpha-v-beta-6 integrin, test inhibitor compound, LAP, biotinylated anti-LAP antibody and acceptor beads were all added together.
2. After 2 hours, donor beads were added. After another 30 minute incubation, samples were then read.
Integrin binding was evaluated by exciting donor beads at 680 nm, and measuring the fluorescent signal produced, between 520-620 nm, using a Biotek Instruments (Winooski, Vt., USA) SynergyNeo2 multimode plate reader. […] Data analysis for IC50 determinations was carried out by nonlinear four parameter logistic regression analysis using Dotmatics ELN Software (Core Informatics Inc., Branford, Conn.).

Chain of human integrin αvβ6 (P06756 31-992): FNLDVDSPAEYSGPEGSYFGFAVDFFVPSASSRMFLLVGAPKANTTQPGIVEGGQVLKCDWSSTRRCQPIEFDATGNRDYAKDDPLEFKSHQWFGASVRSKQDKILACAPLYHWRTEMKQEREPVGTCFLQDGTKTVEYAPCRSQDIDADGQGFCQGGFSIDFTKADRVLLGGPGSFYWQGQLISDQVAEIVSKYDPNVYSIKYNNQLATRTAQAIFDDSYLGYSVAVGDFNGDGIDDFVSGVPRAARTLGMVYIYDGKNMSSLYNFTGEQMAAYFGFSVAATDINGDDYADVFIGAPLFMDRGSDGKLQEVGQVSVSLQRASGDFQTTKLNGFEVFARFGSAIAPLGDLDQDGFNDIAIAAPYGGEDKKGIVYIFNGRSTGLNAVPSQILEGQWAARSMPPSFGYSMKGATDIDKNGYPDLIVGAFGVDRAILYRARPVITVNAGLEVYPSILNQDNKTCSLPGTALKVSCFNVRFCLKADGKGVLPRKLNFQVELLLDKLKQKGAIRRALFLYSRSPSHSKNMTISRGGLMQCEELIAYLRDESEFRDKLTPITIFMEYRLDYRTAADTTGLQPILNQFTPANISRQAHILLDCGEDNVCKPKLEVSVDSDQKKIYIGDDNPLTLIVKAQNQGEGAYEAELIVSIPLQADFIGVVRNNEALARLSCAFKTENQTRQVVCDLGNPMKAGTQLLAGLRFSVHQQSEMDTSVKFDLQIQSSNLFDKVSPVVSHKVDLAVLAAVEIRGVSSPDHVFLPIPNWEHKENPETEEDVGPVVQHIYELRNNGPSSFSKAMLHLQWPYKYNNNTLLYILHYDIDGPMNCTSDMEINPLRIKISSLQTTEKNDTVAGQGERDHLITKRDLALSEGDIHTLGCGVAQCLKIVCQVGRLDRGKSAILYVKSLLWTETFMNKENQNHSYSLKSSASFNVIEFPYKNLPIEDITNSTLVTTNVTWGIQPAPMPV
Chain of human integrin αvβ6 (P18564 22-707): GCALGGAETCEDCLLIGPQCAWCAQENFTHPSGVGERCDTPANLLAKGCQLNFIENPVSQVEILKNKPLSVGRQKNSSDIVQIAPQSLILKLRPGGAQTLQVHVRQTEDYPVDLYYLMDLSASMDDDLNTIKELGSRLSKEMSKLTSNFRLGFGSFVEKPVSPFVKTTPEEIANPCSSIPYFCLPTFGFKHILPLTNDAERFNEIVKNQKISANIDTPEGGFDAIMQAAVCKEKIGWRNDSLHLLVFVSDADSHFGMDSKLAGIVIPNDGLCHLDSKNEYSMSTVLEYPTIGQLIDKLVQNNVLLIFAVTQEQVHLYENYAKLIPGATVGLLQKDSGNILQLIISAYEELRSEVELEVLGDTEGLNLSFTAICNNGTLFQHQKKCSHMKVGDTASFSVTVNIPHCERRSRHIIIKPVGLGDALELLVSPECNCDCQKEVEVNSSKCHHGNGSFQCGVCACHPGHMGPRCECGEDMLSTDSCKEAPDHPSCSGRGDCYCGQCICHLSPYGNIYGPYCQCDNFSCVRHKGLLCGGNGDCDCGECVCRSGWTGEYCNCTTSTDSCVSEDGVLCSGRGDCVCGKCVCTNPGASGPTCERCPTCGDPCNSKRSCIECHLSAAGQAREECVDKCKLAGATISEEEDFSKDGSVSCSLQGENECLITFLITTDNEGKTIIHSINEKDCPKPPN

**Q.** How did the IC50 turn out when CC(C)(C(=O)NC(CCO[C@H]1C[C@H](CCc2ccc3c(n2)NCCC3)C1)C(=O)O)c1ccc(F)cc1 (stereo partly drawn) [Compound 87, N-(2-(4-fluorophenyl)-2-methylpropanoyl)-O-(trans-3-(2-(5,6,7,8-tetrahydro-1,8-naphthyridin-2-yl)ethyl)cyclobutyl)homoserine] was run?
**A.** 250 to 1000 nM

**Q.** For CC(C)(C(=O)N[C@@H](CCO[C@H]1C[C@H](CCc2ccc3c(n2)NCCC3)C1)C(=O)O)C1CCCCC1 [Compound 165, N-(2-cyclohexyl-2-methylpropanoyl)-O-(trans-3-(2-(5,6,7,8-tetrahydro-1,8-naphthyridin-2-yl)ethyl)cyclobutyl)homoserine], which IC50 is on record?
**A.** < 50 nM

**Q.** O=C(O)C(CCO[C@H]1C[C@H](CCc2ccc3c(n2)NCCC3)C1)NC(=O)C1(c2ccccc2)CC1 (stereo partly drawn) [Compound 97, N-(1-phenylcyclopropane-1-carbonyl)-O-(trans-3-(2-(5,6,7,8-tetrahydro-1,8-naphthyridin-2-yl)ethyl)cyclobutyl)homoserine] was tested. Which IC50 did it give?
**A.** < 50 nM

**Q.** How did the IC50 turn out when O=C(NC(CCOCCCCc1ccc2c(n1)NCCC2)C(=O)O)c1c(Cl)cncc1Cl (stereo not drawn) [Compound 189, N-(3,5-dichloroisonicotinoyl)-O-(4-(5,6,7,8-tetrahydro-1,8-naphthyridin-2-yl)butyl)homoserine] was run?
**A.** 50 to 250 nM

**Q.** How did the IC50 turn out when O=C(NC(CCOCCCCc1ccc2c(n1)NCCC2)C(=O)O)C1CCC(F)(F)CC1 (stereo not drawn) [Compound 7, N-(4,4-difluorocyclohexane-1-carbonyl)-O-(4-(5,6,7,8-tetrahydro-1,8-naphthyridin-2-yl)butyl)homoserine] was run?
**A.** 50 to 250 nM

**Q.** For Cn1ncc2c(C(=O)NC(CCOCCCCc3ccc4c(n3)NCCC4)C(=O)O)cccc21 (stereo not drawn) [Compound 4, N-(1-methyl-1H-indazole-4-carbonyl)-O-(4-(5,6,7,8-tetrahydro-1,8-naphthyridin-2-yl)butyl)homoserine], which IC50 is on record?
**A.** > 1000 nM

**Q.** How did the IC50 turn out when O=C(NC(CCO[C@H]1C[C@H](CCc2ccc3c(n2)NCCC3)C1)C(=O)O)OC1CCC1c1ccccc1 (stereo partly drawn) [Compound 142, N-((2-phenylcyclobutoxy)carbonyl)-O-(trans-3-(2-(5,6,7,8-tetrahydro-1,8-naphthyridin-2-yl)ethyl)cyclobutyl)homoserine] was run?
**A.** 50 to 250 nM

**Q.** For O=C(NC(CCO[C@H]1C[C@H](CCc2ccc3c(n2)NCCC3)C1)C(=O)O)c1cccc(-c2cncs2)c1 (stereo partly drawn) [Compound 49, O-(trans-3-(2-(5,6,7,8-tetrahydro-1,8-naphthyridin-2-yl)ethyl)cyclobutyl)-N-(3-(thiazol-5-yl)benzoyl)homoserine], which IC50 is on record?
**A.** 50 to 250 nM

**Q.** For C[C@@H](CNC(=O)OC(C)(C)C)OC(=O)N[C@@H](CCO[C@H]1C[C@H](CCc2ccc3c(n2)NCCC3)C1)C(=O)O [Compound 152, N—((((S)-1-((tert-butoxycarbonyl)amino)propan-2-yl)oxy)carbonyl)-O-(trans-3-(2-(5,6,7,8-tetrahydro-1,8-naphthyridin-2-yl)ethyl)cyclobutyl)homoserine], which IC50 is on record?
**A.** < 50 nM

**Q.** O=C(N[C@@H](CCO[C@H]1C[C@H](CCc2ccc3c(n2)NCCC3)C1)C(=O)O)c1ccc(F)cc1Cl [Compound 25, N-(2-chloro-4-fluorobenzoyl)-O-(trans-3-(2-(5,6,7,8-tetrahydro-1,8-naphthyridin-2-yl)ethyl)cyclobutyl)homoserine] was tested. Which IC50 did it give?
**A.** < 50 nM

**Q.** For CCC1(C(=O)N[C@@H](CCO[C@H]2C[C@H](CCc3ccc4c(n3)NCCC4)C2)C(=O)O)CCC(F)(F)CC1 [Compound 181, N-(1-ethyl-4,4-difluorocyclohexane-1-carbonyl)-O-(trans-3-(2-(5,6,7,8-tetrahydro-1,8-naphthyridin-2-yl)ethyl)cyclobutyl)homoserine], which IC50 is on record?
**A.** < 50 nM

**Q.** For O=C(CC1CCC1)N[C@@H](CCO[C@H]1C[C@H](CCc2ccc3c(n2)NCCC3)C1)C(=O)O [Compound 124, N-(2-cyclobutylacetyl)-O-(trans-3-(2-(5,6,7,8-tetrahydro-1,8-naphthyridin-2-yl)ethyl)cyclobutyl)homoserine], which IC50 is on record?
**A.** < 50 nM

**Q.** With CCC(CC)CC(=O)N[C@H](CCO[C@H]1C[C@H](CCc2ccc3c(n2)NCCC3)C1)C(=O)O [Compound 59, N-(3-ethylpentanoyl)-O-(trans-3-(2-(5,6,7,8-tetrahydro-1,8-naphthyridin-2-yl)ethyl)cyclobutyl)-D-homoserine] as the compound, how does the IC50 read?
**A.** > 1000 nM

**Q.** How did the IC50 turn out when CC(C)(C)OC(=O)NC(CCOCCCCc1ccc2c(n1)NCCC2)C(=O)O (stereo not drawn) [Compound 13, N-(tert-butoxycarbonyl)-O-(4-(5,6,7,8-tetrahydro-1,8-naphthyridin-2-yl)butyl)homoserine] was run?
**A.** 250 to 1000 nM

**Q.** With CC(C)(C)OC(=O)N1CC(C(=O)N[C@@H](CCO[C@H]2C[C@H](CCc3ccc4c(n3)NCCC4)C2)C(=O)O)C1 [Compound 173, N-(1-(tert-butoxycarbonyl)azetidine-3-carbonyl)-O-(trans-3-(2-(5,6,7,8-tetrahydro-1,8-naphthyridin-2-yl)ethyl)cyclobutyl)homoserine] as the compound, how does the IC50 read?
**A.** < 50 nM

**Q.** With Cc1cc(F)cc(C)c1C(=O)NC(CCOC1CC(CCc2ccc3c(n2)NCCC3)C1)C(=O)O (stereo not drawn) [Compound 175] as the compound, how does the IC50 read?
**A.** < 50 nM

**Q.** O=C(CC1CC1)N[C@@H](CCO[C@H]1C[C@H](CCc2ccc3c(n2)NCCC3)C1)C(=O)O [Compound 126, N-(2-cyclopropylacetyl)-O-(trans-3-(2-(5,6,7,8-tetrahydro-1,8-naphthyridin-2-yl)ethyl)cyclobutyl)homoserine] was tested. Which IC50 did it give?
**A.** < 50 nM

**Q.** CC(C)(C)OC(=O)N1CC(C)(C(=O)N[C@@H](CCO[C@H]2C[C@H](CCc3ccc4c(n3)NCCC4)C2)C(=O)O)C1 [Compound 172, N-(1-(tert-butoxycarbonyl)-3-methylazetidine-3-carbonyl)-O-(trans-3-(2-(5,6,7,8-tetrahydro-1,8-naphthyridin-2-yl)ethyl)cyclobutyl)homoserine] was tested. Which IC50 did it give?
**A.** < 50 nM

**Q.** How did the IC50 turn out when O=C(N[C@@H](CCO[C@H]1C[C@@H](CCc2ccc3c(n2)NCCC3)C1)C(=O)O)c1ccncc1 [Compound 68, N-isonicotinoyl-O-(cis-3-(2-(5,6,7,8-tetrahydro-1,8-naphthyridin-2-yl)ethyl)cyclobutyl)homoserine] was run?
**A.** 250 to 1000 nM

**Q.** Which IC50 does the source give for O=C(N[C@@H](CCO[C@H]1C[C@H](CCc2ccc3c(n2)NCCC3)C1)C(=O)O)C1CCc2ccccc21 (single isomer, unassigned) [111**,††] here?
**A.** < 50 nM

**Q.** O=C(N[C@@H](CCO[C@H]1C[C@H](CCc2ccc3c(n2)NCCC3)C1)C(=O)O)c1ccc(Cl)cc1 [Compound 17, N-(4-chlorobenzoyl)-O-(trans-3-(2-(5,6,7,8-tetrahydro-1,8-naphthyridin-2-yl)ethyl)cyclobutyl)homoserine] was tested. Which IC50 did it give?
**A.** < 50 nM

**Q.** Which IC50 does the source give for C[C@H](OC(=O)N[C@@H](CCO[C@H]1C[C@H](CCc2ccc3c(n2)NCCC3)C1)C(=O)O)c1ccccc1 [Compound 141, N—(((S)-1-phenylethoxy)carbonyl)-O-(trans-3-(2-(5,6,7,8-tetrahydro-1,8-naphthyridin-2-yl)ethyl)cyclobutyl)homoserine] here?
**A.** < 50 nM

**Q.** With CC(C)(C)OC(=O)N1CCC(C(=O)N[C@@H](CCO[C@H]2C[C@H](CCc3ccc4c(n3)NCCC4)C2)C(=O)O)CC1 [Compound 160, N-(1-(tert-butoxycarbonyl)piperidine-4-carbonyl)-O-(trans-3-(2-(5,6,7,8-tetrahydro-1,8-naphthyridin-2-yl)ethyl)cyclobutyl)homoserine] as the compound, how does the IC50 read?
**A.** 50 to 250 nM

**Q.** How did the IC50 turn out when O=C(N[C@@H](CCO[C@H]1C[C@H](CCc2ccc3c(n2)NCCC3)C1)C(=O)O)c1ccccc1-c1ccccn1 [Compound 166, N-(2-(pyridin-2-yl)benzoyl)-O-(trans-3-(2-(5,6,7,8-tetrahydro-1,8-naphthyridin-2-yl)ethyl)cyclobutyl)homoserine] was run?
**A.** 50 to 250 nM
